Test results as given in ChEMBL document CHEMBL4699434, “Fenretinide binding to the lysosomal protein saposin D alters ceramide solubilization and hydrolysis” (RSC Med Chem, 2020).
The source made the active and inactive calls. The rule behind the calls is not given here.

Experiments:
[1] = biological target: T1, Prosaposin (Homo sapiens) (UniProt P07602); test: Binding affinity to human saposin D (1 to 81 residues) expressed in Escherichia coli assessed as inhibition of ceramide hydrolysis preincubated for 30 mins followed by ceramide addition measured after 72 hrs by HPLC analysis
T1 sequence (whole entry): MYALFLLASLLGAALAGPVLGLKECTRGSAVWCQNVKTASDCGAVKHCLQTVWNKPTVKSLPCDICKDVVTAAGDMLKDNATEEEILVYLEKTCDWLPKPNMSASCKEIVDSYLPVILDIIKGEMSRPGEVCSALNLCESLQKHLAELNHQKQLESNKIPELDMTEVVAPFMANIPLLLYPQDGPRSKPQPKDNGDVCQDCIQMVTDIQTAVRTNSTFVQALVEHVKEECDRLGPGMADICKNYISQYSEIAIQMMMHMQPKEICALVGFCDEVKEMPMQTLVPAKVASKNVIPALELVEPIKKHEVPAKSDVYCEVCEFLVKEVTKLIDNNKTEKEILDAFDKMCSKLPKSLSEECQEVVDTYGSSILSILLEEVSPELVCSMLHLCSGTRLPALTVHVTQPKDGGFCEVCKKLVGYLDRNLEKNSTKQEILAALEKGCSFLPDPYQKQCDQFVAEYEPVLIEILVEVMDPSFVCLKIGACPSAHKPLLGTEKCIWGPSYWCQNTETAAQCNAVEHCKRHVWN

[2] = biological target: T2, Prosaposin (Homo sapiens, UniProt P07602); test: Binding affinity to human saposin D (1 to 81 residues) expressed in Escherichia coli at 25 degree C by fluorescence quenching spectroscopy
T2 sequence (P07602 whole entry): T1 sequence (whole entry)

[3] = biological target: T3, Acid ceramidase (Homo sapiens) (UniProt Q13510); test: Inhibition of acid ceramidase (unknown origin) assessed as inhibition of ceramide hydrolysis preincubated for 30 mins followed by ceramide addition measured after 72 hrs by HPLC analysis
T3 sequence (whole entry): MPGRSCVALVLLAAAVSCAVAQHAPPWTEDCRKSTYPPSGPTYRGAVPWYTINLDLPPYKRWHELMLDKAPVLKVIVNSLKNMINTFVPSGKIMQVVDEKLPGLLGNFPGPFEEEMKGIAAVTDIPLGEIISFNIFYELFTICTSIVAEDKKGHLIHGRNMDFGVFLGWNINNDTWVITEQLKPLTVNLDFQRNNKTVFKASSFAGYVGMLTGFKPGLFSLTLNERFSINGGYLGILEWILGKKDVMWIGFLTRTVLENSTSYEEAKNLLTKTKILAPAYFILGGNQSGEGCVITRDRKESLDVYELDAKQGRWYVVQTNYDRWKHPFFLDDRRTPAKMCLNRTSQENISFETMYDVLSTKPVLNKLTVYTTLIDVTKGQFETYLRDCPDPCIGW

[4] = biological target: T1, Prosaposin (Homo sapiens); test: Binding affinity to human saposin D (1 to 81 residues) expressed in Escherichia coli assessed as association constant at equilibrium at 25 degree C by fluorescence quenching spectroscopy
[5] = biological target: T2, Prosaposin; test: Binding affinity to human saposin D (1 to 81 residues) expressed in Escherichia coli at 25 degree C by electronic absorption spectroscopy
[6] = biological target: T1, Prosaposin (Homo sapiens); test: Binding affinity to human saposin D (1 to 81 residues) expressed in Escherichia coli complexed with CerOH assessed as decrease in ceramide hydrolysis using ceramide as counter-substrate measured after 24 hrs in presence of acid ceramidase by fluorescence quenching spectroscopy
[7] = biological target: T1, Prosaposin (Homo sapiens); test: Binding affinity to human saposin D (1 to 81 residues) expressed in Escherichia coli complexed with CerPO4 assessed as decrease in ceramide hydrolysis using ceramide as counter-substrate preincubated the protein-ceramide complex for 30 mins measured after 24 hrs in presence of acid ceramidase by HPLC analysis
[8] = biological target: T1, Prosaposin (Homo sapiens); test: Binding affinity to human saposin D (1 to 81 residues) expressed in Escherichia coli assessed as association constant at equilibrium at 25 degree C by electronic absorption spectroscopy
[9] = biological target: T1, Prosaposin (Homo sapiens); test: Binding affinity to human saposin D (1 to 81 residues) expressed in Escherichia coli assessed as decrease in BODIPY-TR labeled ceramide solubilization in sodium phosphate buffer measured after 30 mins by fluorescence assay

Structure (SMILES): CC1=C(/C=C/C(C)=C/C=C/C(C)=C/C(=O)Nc2ccc(O)cc2)C(C)(C)CCC1 [FENRETINIDE]
- inhibition [1]: Active
- Kd [2]: 6.9 µM
- inhibition [3]: Active
- Ka [4]: 1.45 10^5/M
- Kd [5]: 6.9 µM
- Activity [6]: Active
- Activity [7]: Active
- Ka [8]: 1.45 10^5/M
- Activity [9]: inactive
